Among the data in US6218427A, “Chromene-3-carboxylate derivatives” (Shionogi & Co., Ltd., priority 1996, dated 2001) are IC50 values, retold here.

One may read the IC50 as the concentration needed to halve the response being measured. Low values mean higher potency, high ones lower potency.

The target of test [1] is T1, endothelin B (ETB) receptor (Sus scrofa, UniProt P35463).
T1 construct: expressed in transfected cells; host or cells: COS-7
T1 sequence (P35463 27-443): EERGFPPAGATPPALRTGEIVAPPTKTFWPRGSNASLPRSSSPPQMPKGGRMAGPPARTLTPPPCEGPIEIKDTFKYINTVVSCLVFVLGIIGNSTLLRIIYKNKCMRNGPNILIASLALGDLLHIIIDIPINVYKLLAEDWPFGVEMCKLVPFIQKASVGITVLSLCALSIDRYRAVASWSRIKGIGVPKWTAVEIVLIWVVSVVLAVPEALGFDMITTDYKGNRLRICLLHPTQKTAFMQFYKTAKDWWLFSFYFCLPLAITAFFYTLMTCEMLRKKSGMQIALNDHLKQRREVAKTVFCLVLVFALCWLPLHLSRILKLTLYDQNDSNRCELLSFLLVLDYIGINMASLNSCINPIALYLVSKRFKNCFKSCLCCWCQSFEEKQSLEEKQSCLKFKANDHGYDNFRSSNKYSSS
The test can be described thus: Measurement of affinity for endothelin B (ETB) receptor: inhibition of 125I-labeled endothelin-3 binding to COS-7 cells expressing pig ETB receptor. Particulars: 125I-endothelin-3 25 pM, 37° C., 1 h. How it is done: Experiment 2 Measurement of affinity for endothelin B (ETB) receptor
Affinities for the ETB receptor were measured from the potency for inhibiting ^125 I-labeled endothelin-3 binding to COS-7 cells expressing the pig endothelin ETB receptor. In brief, a plasmid vector to which the pig endothelin ETB receptor gene was inserted was transfected to COS-7 cells by the lipofectin method. After the cells were washed with buffer, 10^3 -10^4 cells were dispersed in HEPES buffered Hanks' solution (0.1 ml) containing 25 pM of 125I labeled endothelin-3 and various kinds of protease inhibitors and incubated in the presence or absence of the compound of the present invention at 37° C. for 1 h. After completion of the reaction, the radioactivity bound was trapped by a glass fiber filter and measured with a gamma counter. Specific binding was calculated by subtracting the non-specific binding measured in the presence of 10^-7 M non-radioactive endothelin-3 from the total binding.

Test [2] has as its target T2, endothelin A (ETA) receptor (Rattus norvegicus, UniProt P26684).
T2 construct: smooth muscle A7r5 cells derived from rat aorta; endogenous in cells; host or cells: A7r5 (rat aorta smooth muscle cells)
T2 sequence (P26684 21-426): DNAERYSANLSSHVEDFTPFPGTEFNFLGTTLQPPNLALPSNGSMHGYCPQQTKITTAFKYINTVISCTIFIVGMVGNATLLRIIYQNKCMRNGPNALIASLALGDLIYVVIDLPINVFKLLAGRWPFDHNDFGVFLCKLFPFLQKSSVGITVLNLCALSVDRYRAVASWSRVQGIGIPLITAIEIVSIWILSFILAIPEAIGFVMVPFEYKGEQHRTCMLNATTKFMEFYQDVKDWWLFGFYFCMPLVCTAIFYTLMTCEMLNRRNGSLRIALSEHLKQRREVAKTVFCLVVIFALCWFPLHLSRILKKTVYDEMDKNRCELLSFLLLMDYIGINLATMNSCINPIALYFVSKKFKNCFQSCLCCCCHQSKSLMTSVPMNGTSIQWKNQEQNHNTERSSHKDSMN
The test can be described thus: Measurement of affinity for endothelin A (ETA) receptor: inhibition of 125I-labeled endothelin-1 binding to A7r5 cells. The settings on record: 125I-endothelin-1 8.3 pM, A7r5 cells derived from rat aorta, 37° C., 1 h. The protocol:
Experiment 1 Measurement of affinity for endothelin A (ETA) receptor
Affinities for the ETA receptor were measured from the potency for inhibition of binding of ^125 I-labeled endotheline-1 to smooth muscle A7r5 cells derived from rat aorta. In brief, the cells cultured in 48-well plates were washed with buffer, and incubated in 0.3 ml of Hepes buffered Hanks' solution containing labeled endothelin-1 (8.3 pM) and various kinds of protease inhibitors in the presence or absence of the compound of the present invention at 37° C. for 1 h. The incubation was terminated by rapid removal of the incubation medium and the cells were washed with a HEPES buffered Hanks' solution. The radioactivity of ^125 I-labeled endothelin-1 bound to the cells was determined with a gamma-counter. The specific binding was calculated by subtracting the non-specific binding which was determined in the presence of 10^-7 M non radioactive endothelin-1 from the total binding.

Consider `CCCOC1=C(C(=O)O)C(c2ccc3c(c2)OCO3)Oc2ccc(OC(C)C)cc21` (centres unmarked) [Compound I-56], for which the IC50 in test [1] was determined as 1300 nM; in test [2] it was 1.5 nM.

For `CCCCOC1=C(C(=O)O)C(c2ccc3c(c2)OCO3)Oc2ccc(OC(C)C)cc21` (centres unmarked) [Compound I-57], the IC50 in test [1] stood at 780 nM; in test [2], 0.41 nM.

`CCCCCOC1=C(C(=O)O)C(c2ccc3c(c2)OCO3)Oc2ccc(OC(C)C)cc21` (centres unmarked) [Compound I-58]: the values for the IC50 in test [1] and in test [2] were 150 nM and 0.48 nM, respectively.

In the case of `CC(C)OC1=C(C(=O)O)C(c2ccc3c(c2)OCO3)Oc2ccc(OC(C)C)cc21` (centres unmarked) [Compound I-59], the IC50 was 730 nM in test [1] and 0.81 nM in test [2].

Regarding `C=CCCCOC1=C(C(=O)O)C(c2ccc3c(c2)OCO3)Oc2ccc(OC(C)C)cc21` (centres unmarked) [Compound I-65, 2-(Benzo[1,3]dioxol-5-yl)-6-isopropoxy-4-(4-pentenyloxy-1-yl)-2H-chromen-3-carboxylic acid], the 50% inhibitory concentration (IC50) in test [1] is 130 nM; in test [2], 0.38 nM.

Take `CCCCCCOC1=C(C(=O)O)C(c2ccc3c(c2)OCO3)Oc2ccc(OC(C)C)cc21` (centres unmarked) [Compound I-67]: the IC50 was 78 nM in test [1] and 0.67 nM in test [2].

Consider `CC(C)Oc1ccc2c(c1)C(OCCCCCO)=C(C(=O)O)C(c1ccc3c(c1)OCO3)O2` (centres unmarked) [Compound I-68], for which the half-inhibitory concentration (IC50) in test [1] was 880 nM; in test [2] it was 0.95 nM.

`COC(CCCOC1=C(C(=O)O)C(c2ccc3c(c2)OCO3)Oc2ccc(OC(C)C)cc21)OC` (centres unmarked) [Compound I-70]: the IC50 turned out to be 270 nM in test [1] and 1.2 nM in test [2].

Consider `COc1ccc(OC2=C(C(=O)O)C(c3ccc4c(c3)OCO4)Oc3ccc(OC(C)C)cc32)cc1` (centres unmarked) [Compound I-74, 2-(Benzo[1,3]dioxol-5-yl)-6-isopropoxy-4-(4-methoxy-phenoxy)-2H-chromen-3-carboxylic acid], for which the IC50 was found to be 58 nM in test [1] and 0.21 nM in test [2].

For the compound `CCCCC1=C(C(=O)O)C(c2ccc3c(c2)OCO3)Oc2ccc(OC(C)C)cc21` (centres unmarked) [Compound I-76], the figures for the IC50 in test [1] and in test [2] were 610 nM and 0.73 nM, respectively.

On to `CCCCCC1=C(C(=O)O)C(c2ccc3c(c2)OCO3)Oc2ccc(OC(C)C)cc21` (centres unmarked) [Compound I-77, 2-(Benzo[1,3]dioxol-5-yl)-6-isopropoxy-4-pentyl-2H-chromen-3-carboxylic acid], for which the IC50 in test [1] stood at 150 nM; in test [2] it was 0.32 nM.

With `CC(C)Oc1ccc2c(c1)C(C(C)C)=C(C(=O)O)C(c1ccc3c(c1)OCO3)O2` (centres unmarked) [Compound I-78], the IC50 is 2500 nM in test [1] and 0.63 nM in test [2].

Consider `CC(C)Oc1ccc2c(c1)C(C1CCCC1)=C(C(=O)O)C(c1ccc3c(c1)OCO3)O2` (centres unmarked) [Compound I-79, 2-(Benzo[1,3]dioxol-5-yl)-4-cyclopentyl-6-isopropoxy-2H-chromen-3-carboxylic acid], for which the figures for the IC50 in test [1] and in test [2] were 350 nM and 0.53 nM, respectively.

For `Cc1ccc(C2=C(C(=O)O)C(c3ccc4c(c3)OCO4)Oc3ccc(OC(C)C)cc32)s1` (centres unmarked) [Compound I-80, 2-(Benzo[1,3]dioxol-5-yl)-6-isopropoxy-4-(5-methyl-thiophen-2-yl)-2H-chromen-3-carboxylic acid], the IC50 in test [1] was found to be 1800 nM; in test [2], 1 nM.

For `COc1ccc(CC2=C(C(=O)O)C(c3ccc4c(c3)OCO4)Oc3ccc(OC(C)C)cc32)cc1` (centres unmarked) [Compound I-81, 2-(Benzo[1,3]dioxol-5-yl)-6-isopropoxy-4-(4-methoxy-benzyl)-2H-chromen-3-carboxylic acid], the IC50 was found to be 85 nM in test [1] and 0.5 nM in test [2].

Take `CCCCCCC1=C(C(=O)O)C(c2ccc3c(c2)OCO3)Oc2ccc(OC(C)C)cc21` (centres unmarked) [Compound I-82]: the values for the IC50 in test [1] and in test [2] were 69 nM and 0.62 nM, respectively.

With `CC(C)CCC1=C(C(=O)O)C(c2ccc3c(c2)OCO3)Oc2ccc(OC(C)C)cc21` (centres unmarked) [Compound I-83], the IC50 in test [1] turned out to be 480 nM; in test [2], 1.9 nM.

On to `COCCCC1=C(C(=O)O)C(c2ccc3c(c2)OCO3)Oc2ccc(OC(C)C)cc21` (centres unmarked) [Compound I-84], for which the IC50 in test [1] worked out at 710 nM; in test [2] it was 1.8 nM.

`CC(C)Oc1ccc2c(c1)C(CC1CCCCC1)=C(C(=O)O)C(c1ccc3c(c1)OCO3)O2` (centres unmarked) [Compound I-85]: the IC50 worked out at 46 nM in test [1] and 0.58 nM in test [2].

As to `C=CCCC1=C(C(=O)O)C(c2ccc3c(c2)OCO3)Oc2ccc(OC(C)C)cc21` (centres unmarked) [Compound I-86], the values for the IC50 in test [1] and in test [2] were 950 nM and 2.7 nM, respectively.

As for `CC(C)Oc1ccc2c(c1)C(CCCCO)=C(C(=O)O)C(c1ccc3c(c1)OCO3)O2` (centres unmarked) [Compound I-87], the IC50 in test [1] came to 1800 nM; in test [2], 2.3 nM.

Turning to `CCCCSC1=C(C(=O)O)C(c2ccc3c(c2)OCO3)Oc2ccc(OC(C)C)cc21` (centres unmarked) [Compound I-89, 2-(Benzo[1,3]dioxol-5-yl)-4-butylsulfanyl-6-isopropoxy-2H-chromen-3-carboxylic acid], the 50% inhibitory concentration (IC50) in test [1] is 100 nM; in test [2], 0.27 nM.
